{"source": "paper PMC4860631", "about": "“Pharmacokinetics and tolerability of NSC23925b, a novel P-glycoprotein inhibitor: preclinical study in mice and rats” (Scientific Reports, 2016)", "key": {"CYP2B6": {"target": "T1, CYP2B6 (Homo sapiens, UniProt P20813)", "T1 construct": "from tissue; host or cells: human liver microsomes", "T1 sequence (P20813 1-491)": "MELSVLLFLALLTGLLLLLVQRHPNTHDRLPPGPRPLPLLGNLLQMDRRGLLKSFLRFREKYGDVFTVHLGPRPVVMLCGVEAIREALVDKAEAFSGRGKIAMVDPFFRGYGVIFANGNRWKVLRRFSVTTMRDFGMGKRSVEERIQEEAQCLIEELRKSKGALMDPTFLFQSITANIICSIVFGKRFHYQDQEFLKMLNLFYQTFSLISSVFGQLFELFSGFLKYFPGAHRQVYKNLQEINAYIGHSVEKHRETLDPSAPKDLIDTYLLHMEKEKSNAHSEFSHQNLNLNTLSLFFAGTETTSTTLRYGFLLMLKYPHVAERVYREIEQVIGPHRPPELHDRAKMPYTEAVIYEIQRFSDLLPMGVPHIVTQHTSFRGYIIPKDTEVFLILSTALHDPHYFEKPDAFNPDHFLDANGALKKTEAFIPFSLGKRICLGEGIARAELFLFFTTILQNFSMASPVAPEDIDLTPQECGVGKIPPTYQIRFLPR", "experiment": "HLM-LC-MS CYP450 inhibition assay, CYP2B6", "format": "in vitro ADME", "method": "(§1) Compounds were tested in triplicate."}, "BALB/c mice": {"test_system": "BALB/c mice", "experiment": "Determination of maximum tolerated dose (MTD) in mice", "format": "in vivo", "settings": "mice, 5 exposed", "method": "(§2) The MTD determination assay was composed of sighting study and main study. For the sighting study of the determination maximum tolerable dose (MTD) of NSC23925b, one of each animal (one female rat, one male rat, one female mouse, and one male mouse) was used at each I.V. and I.P. injection dose level. The starting dose was selected from the fixed dose levels (5, 50, 500, 2000 mg/kg) as a dose expected to produce evident toxicity. The first animal was dosed and observed. Time of appearance, degree, and lasting/recovery time of signs were recorded in details. Afterwards, animals were observed twice on the dosing day and then changed to daily observation. The observation lasted at least 14 days. If the first animal died or appeared impaired, the second animal received a middle dose of the two doses and vice versa. The sighting study was completed when a decision on the starting dose for the main study was made.\n(§3) During the main study, a total of five animals of one sex were used for each dose level investigated. The five animals were made up of one animal from the sighting study dosed at the selected dose level together with an additional four animals. Each group received one of the fixed doses by I.V. and I.P. based on the sighting study. If the first animal died or appeared impaired, the second animal received a middle dose of the two doses and vice versa.\n(§4) Animals were fasted overnight prior to dosing. Following the period of fasting, the animals were weighed and the dose was calculated according to the body weight. After the animals were administrated a dose volume of 10 mL/kg, food was withheld for another 3–4 hours. Individual weights of animals were determined shortly before the test substance was administered and twice weekly thereafter. Weight changes were calculated and recorded. Animals injected with saline were the control group for the weight alteration."}, "[1]": {"experiment": "Determination of maximum tolerated dose (MTD) in mice", "format": "in vivo", "settings": "mouse, in vivo", "method": "as §2, §3, §4"}, "CYP2C9": {"target": "T2, CYP2C9 (Homo sapiens, UniProt P11712)", "T2 construct": "from tissue; host or cells: human liver microsomes", "T2 sequence (P11712 whole entry)": "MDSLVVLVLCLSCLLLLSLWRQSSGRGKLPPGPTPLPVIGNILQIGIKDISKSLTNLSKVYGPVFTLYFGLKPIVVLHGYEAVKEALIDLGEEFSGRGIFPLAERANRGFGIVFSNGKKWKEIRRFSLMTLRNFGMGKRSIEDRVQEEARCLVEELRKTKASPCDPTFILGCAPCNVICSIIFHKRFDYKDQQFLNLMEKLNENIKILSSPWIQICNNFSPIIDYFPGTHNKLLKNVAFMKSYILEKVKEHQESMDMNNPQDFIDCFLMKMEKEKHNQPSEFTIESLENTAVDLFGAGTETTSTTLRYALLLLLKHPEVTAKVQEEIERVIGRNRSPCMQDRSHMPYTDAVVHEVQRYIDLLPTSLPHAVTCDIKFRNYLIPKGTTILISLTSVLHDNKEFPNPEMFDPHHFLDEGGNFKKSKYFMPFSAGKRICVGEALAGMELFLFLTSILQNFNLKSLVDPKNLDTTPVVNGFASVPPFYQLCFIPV", "experiment": "HLM-LC-MS CYP450 inhibition assay, CYP2C9", "format": "in vitro ADME", "experimental": "A sigmoid-shaped curve (Log(inhibitor) vs. Response-Variable slope) was fitted to the data and the IC50 was calculated using GraphPad Prism software.\nThis assay used a cocktail of drug-probe substrates that are specific to each isozyme with HLM and LC-MS detection[33][34]. Each test article and reference inhibitor was dissolved in 40% DMSO and 60% acetonitrile (ACN) mixture. […] Substrates were then added to their respective well containing the compound/HLM solution to start the reaction. […] The solution was centrifuged at 4 °C for 30 min at 3,700 rpm and the supernatant was transferred for LC-MS analysis. The concentrations of the metabolites were determined from standard curves using commercially available metabolite standards. Compounds were tested in triplicate. The half maximal inhibitory concentration (IC50) values were determined by plotting the metabolite formation over the logarithm of the compound concentration using Prism 5.0 software (GraphPad Software Inc., San Diego, CA)."}, "CYP1A2": {"target": "T3, CYP1A2 (Homo sapiens, UniProt P05177)", "T3 sequence (P05177 1-516)": "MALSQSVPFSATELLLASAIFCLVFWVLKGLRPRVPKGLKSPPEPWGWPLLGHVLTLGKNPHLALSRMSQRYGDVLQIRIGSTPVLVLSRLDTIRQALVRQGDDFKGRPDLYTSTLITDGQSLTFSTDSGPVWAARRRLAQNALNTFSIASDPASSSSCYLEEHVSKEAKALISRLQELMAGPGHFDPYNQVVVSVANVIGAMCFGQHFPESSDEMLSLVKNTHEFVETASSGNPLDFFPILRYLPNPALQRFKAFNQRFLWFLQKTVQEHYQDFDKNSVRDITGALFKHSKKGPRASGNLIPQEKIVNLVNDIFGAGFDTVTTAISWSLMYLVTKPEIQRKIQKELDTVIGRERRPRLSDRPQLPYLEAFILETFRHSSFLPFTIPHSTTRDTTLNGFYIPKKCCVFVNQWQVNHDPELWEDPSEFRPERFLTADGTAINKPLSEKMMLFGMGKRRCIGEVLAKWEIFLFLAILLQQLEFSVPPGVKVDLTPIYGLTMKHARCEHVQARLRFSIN", "experiment": "HLM-LC-MS CYP450 inhibition assay, CYP1A2", "format": "in vitro ADME"}, "CYP2C19": {"target": "T4, CYP2C19 (Homo sapiens, UniProt P33261)", "T4 construct": "from tissue; host or cells: human liver microsomes", "T4 sequence (P33261 whole entry)": "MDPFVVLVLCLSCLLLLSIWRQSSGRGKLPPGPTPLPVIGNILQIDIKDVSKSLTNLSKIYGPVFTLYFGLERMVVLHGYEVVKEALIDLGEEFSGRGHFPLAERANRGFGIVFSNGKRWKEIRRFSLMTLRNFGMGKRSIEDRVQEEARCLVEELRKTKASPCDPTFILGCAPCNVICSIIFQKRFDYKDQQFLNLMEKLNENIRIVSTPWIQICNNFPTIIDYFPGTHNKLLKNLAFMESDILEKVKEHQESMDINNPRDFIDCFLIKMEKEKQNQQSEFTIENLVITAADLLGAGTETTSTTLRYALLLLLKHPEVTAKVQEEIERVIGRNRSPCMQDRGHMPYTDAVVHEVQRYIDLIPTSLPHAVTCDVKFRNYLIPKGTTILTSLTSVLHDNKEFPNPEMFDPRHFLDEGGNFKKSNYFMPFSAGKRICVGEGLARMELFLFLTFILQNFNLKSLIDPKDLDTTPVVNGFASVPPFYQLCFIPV", "experiment": "HLM-LC-MS CYP450 inhibition assay, CYP2C19", "format": "in vitro ADME", "method": "as §1"}, "[2]": {"settings": "male, Sprague-Dawley, rat, in vivo"}}, "note": "Where two headings read alike, the source gives them in different places.", "data": [{"smiles": "COc1ccc(-c2cc(C(O)C3CCCCN3)c3ccccc3n2)cc1", "note": "(stereo not drawn) [NSC23925b, (2-(4-methoxyphenyl)-4-quinolinyl)(2-piperidinyl)methanol]", "values": [{"measurement": "CYP inhibitor class", "setting": "CYP2B6; bupropion", "result": "moderate (1–10 μM)"}, {"measurement": "IC50", "setting": "CYP2B6; substrate bupropion 70 μM, hydroxylation, read-out: Compound IC50", "result": 8.59, "unit": "µM"}, {"measurement": "Number of Death", "setting": "BALB/c mice; I.P., 68.80 mg/kg, male", "result": 0}, {"measurement": "Number of Death", "setting": "BALB/c mice; I.P., 93.75 mg/kg, female", "result": 2}, {"measurement": "Number of Death", "setting": "BALB/c mice; I.V., 24.70 mg/kg, female", "result": 0}, {"measurement": "Number of Death", "setting": "BALB/c mice; I.V., 24.70 mg/kg, male", "result": 0}, {"measurement": "MTD", "setting": "[1]; BALB/c, ip, male mice, I.P., all five tolerated, read-out: tolerated dosage (MTD study)", "result": 68.8, "unit": "mg/kg"}, {"measurement": "MTD", "setting": "[1]; both sexes, BALB/c (mice), Sprague-Dawley (rats), intraperitoneal, intravenous, rodents (mice and rats), I.P./I.V., read-out: tolerated dosage according to the MTD results", "result": "24.7 to 93.8", "unit": "mg/kg"}, {"measurement": "MTD", "setting": "[1]; both sexes, BALB/c, iv, female and male mice, I.V., health conditions not significantly influenced, read-out: tolerated dosage (MTD study)", "result": 24.7, "unit": "mg/kg"}, {"measurement": "CYP inhibitor class", "setting": "CYP2C9", "result": "weak (IC50 values of >10 μM)"}, {"measurement": "IC50", "setting": "CYP2C9; substrate diclofenac 10 μM, 4-hydroxylation, read-out: Compound IC50", "result": "> 10", "unit": "µM"}, {"measurement": "CYP inhibitor class", "setting": "CYP1A2", "result": "weak (IC50 values of >10 μM)"}, {"measurement": "IC50", "setting": "CYP1A2; substrate phenacetin 30 μM, O-deethylation, read-out: Compound IC50", "result": "> 10", "unit": "µM"}, {"measurement": "CYP inhibitor class", "setting": "CYP2C19", "result": "weak (IC50 values of >10 μM)"}, {"measurement": "IC50", "setting": "CYP2C19; substrate S-mephenytoin 35 μM, 4-hydroxylation, read-out: Compound IC50", "result": "> 10", "unit": "µM"}, {"measurement": "AUMC0-inf", "setting": "[2]; ip, 5 mg/kg", "result": "38450 ± 36415", "unit": "h·h·ng·mL^−1"}, {"measurement": "AUMC0-t", "setting": "[2]; ip, 5 mg/kg", "result": "13328 ± 5611", "unit": "h·h·ng·mL^−1"}, {"measurement": "F", "setting": "[2]; ip, 5 mg/kg", "result": "110.6 ± 47.4", "unit": "%"}, {"measurement": "AUMC0-inf", "setting": "[2]; iv, 2.5 mg/kg", "result": "10502 ± 642", "unit": "h·h·ng·mL^−1"}, {"measurement": "AUMC0-t", "setting": "[2]; iv, 2.5 mg/kg", "result": "5504 ± 317", "unit": "h·h·ng·mL^−1"}, {"measurement": "MRTIV", "setting": "[2]; iv, 2.5 mg/kg", "result": "11.7 ± 0.512", "unit": "h"}]}]}
